Results published in publication PMC7884711, “Identification of efficient prokaryotic cell-penetrating peptides with applications in bacterial biotechnology” (Communications Biology, 2021).

Legend:
E. coli DH5α cells [1] = assay: Inhibition of bacterial cell growth by CPPs (Max OD600 relative to control); format: cell-based, Escherichia coli; settings: for Max OD (%) (Figure 3f): E. coli DH5α diluted 1/1000 in LB, 5 μg TAMRA-CPP (0.1 μg/μL), OD600 monitored 18 h, max OD of treated cells / max OD of control cells
Experimental: E. coli DH5α cells were grown until OD600 = 1 at 37 °C with shaking at 200 rpm. […] Then, cell growth (OD600) was monitored for 18 h by using the Synergy^TM H1 hybrid multi-mode microplate reader (BioTek, Vermont, USA). As a control, we used E. coli cells that were not treated with CPPs.

E. coli DH5α cells [2] = assay: Penetration efficiency of TAMRA-labeled CPPs, chemical (CaCl2) treatment method, flow cytometry; format: cell-based, Escherichia coli; settings: TAMRA fluorescence intensity in E. coli, library screen of 98 CPPs
Excerpt: (§1) (Fig. 2a). […] First, we prepared electrocompetent and chemically competent cells.

E. coli DH5α cells [3] = assay: Penetration efficiency of TAMRA-labeled CPPs, electroporation-based method, flow cytometry; format: cell-based, Escherichia coli; settings: library CPPs, E. coli, electroporation, Tris buffer pH 7.5, 1 h, mean of n = 3–5
Excerpt: as §1

HEK293 cells = settings: literature knowledge; cited from earlier work
Excerpt: To date, mostly CPPs have been studied and utilized in mammalian cells, but in this study, we studied CPPs in bacteria, E. coli. Thus, it would be very useful to find the similarities and differences of CPPs between prokaryotes and eukaryotes.

Methylomonas sp. DH-1 = assay: Marker gene excision using CPP-conjugated Cre recombinase; format: cell-based; settings: Methylomonas sp. DH-1, 50 μL protein (0.05 μg/μL), electroporation, 4 mM NiCl2 selection
Experimental: For the marker gene excision experiment, the pIns-LKTL plasmid was transformed into Methylomonas sp. DH-1, and then the marker genes flanked with loxP sites (loxP-kan^R-tetA-loxP) were integrated into a non-coding region of the Methylomonas sp. DH-1 genome. To select correctly knocked-in cells, the transformed cells were grown on an NMS agar plate containing kanamycin (10 μg/mL) and 30% methane for 3–7 days. The knocked-in cells were harvested from the plate and washed twice with distilled water, and 50 μL of cell suspension was mixed with 50 μL of CPP-conjugated Cre recombinase (0.05 μg/μL). […] After electroporation, cells were incubated in two types of recovery buffers (20 mM Tris-HCl at pH 7.5 or NMS medium) for 3 h and then spread on NMS agar plates containing 4 mM NiCl2. The colonies grown on the NiCl2 plates were transferred to an NMS agar plate and a kanamycin-containing NMS agar plate to confirm the excision of the marker genes.

Molecule: KLPVM [CPP 63, TAMRA-labeled CPP of the 98-CPP library]
- Max OD (%) (Figure 3f) (E. coli DH5α cells [1]; replicate 1): 69.833%
- Max OD (%) (Figure 3f) (E. coli DH5α cells [1]; replicate 2): 72.8601%
- Max OD (%) (Figure 3f) (E. coli DH5α cells [1]; replicate 3): 66.2839%
- Growth rate (%) (E. coli DH5α cells [1]; E. coli growth with CPP, relative to control): 69.659%
- Anti-bacterial activity (E. coli DH5α cells [1]; class (Cytotoxic / Safe), cutoff of 50%): Safe
- Penetration efficiency (TAMRA FI) (E. coli DH5α cells [2]): 26.6874
- Penetration efficiency (TAMRA fluorescence in E. coli) (E. coli DH5α cells [3]): low efficiency
- Efficiency as CPP in mammalian cells (HEK293 cells): highly efficient

B1: Cre recombinase (No CPP): Cre recombinase without CPP, control (protein, UniProt P06956 1-343, looked up)
Recombinase cre: MSNLLTVHQNLPALPVDATSDEVRKNLMDMFRDRQAFSEHTWKMLLSVCRSWAAWCKLNNRKWFPAEPEDVRDYLLYLQARGLAVKTIQQHLGQLNMLHRRSGLPRPSDSNAVSLVMRRIRKENVDAGERAKQALAFERTDFDQVRSLMENSDRCQDIRNLAFLGIAYNTLLRIAEIARIRVKDISRTDGGRMLIHIGRTKTLVSTAGVEKALSLGVTKLVERWISVSGVADDPNNYLFCRVRKNGVAAPSATSQLSTRALEGIFEATHRLIYGAKDDSGQRYLAWSGHSARVGAARDMARAGVSIPEIMQAGGWTNVNIVMNYIRNLDSETGAMVRLLEDGD
- Marker excision efficiency (%) (Methylomonas sp. DH-1; recovery in NMS buffer 3 h, replicate 1): 10.353%
- Marker excision efficiency (%) (Methylomonas sp. DH-1; recovery in NMS buffer 3 h, replicate 2): 9.156%
- Marker excision efficiency (%) (Methylomonas sp. DH-1; recovery in NMS buffer 3 h, replicate 3): 9.01%
- Marker excision efficiency (%) (Methylomonas sp. DH-1; recovery in Tris-Cl buffer 3 h, replicate 1): 1.75%
- Marker excision efficiency (%) (Methylomonas sp. DH-1; recovery in Tris-Cl buffer 3 h, replicate 2): 2.19%
- Marker excision efficiency (%) (Methylomonas sp. DH-1; recovery in Tris-Cl buffer 3 h, replicate 3): 1.75%
